Test results reported in patent EP0357495A2, “3'Azido-3'-deoxythymidine (AZT) derivatives active against the AIDS virus” (IRE-CELLTARG S.A., priority 1988, dated 1990).
Values joined by “and” are separate entries in the source; they are usually repeats but may differ in a detail not shown here. Equal values may be shown once.

Tests used:
[1] = tested on: virus HIV-1 (souche HTLV-IIIB); test: anti-HIV activity in HIV-infected MT4 cells (MTT method); format: cell-based; details: for activité (compared with AZT, in words): comparison with AZT
Method: (§1) Les produits (AZT, AZT-5′ hémisuccinyl et AZT 5′-leucyl) à différentes concentrations ont été mis en présence de cellules MT4 (4 X 10⁴ cellules par puits de microtray) infectées ou non avec 100 CCID₅₀ de virus HIV-1 (souche HTLV-IIIB). La CCID₅₀ représente la quantité de virus à rajouter pour obtenir une infection de 50 % des cellules (dose infectieuse de cellules en culture 50).
(§2) Après cinq jours d'incubation à 37°C, le nombre de cellules vivantes a été déterminé par la méthode au MTT, basée sur la réduction par les cellules vivantes du 3′-(4, 5-diméthylthiazol-2-yl)-2,5-diphényltétrazoliumbromide, jaune, en formazan, bleu. L'activité antivirale et la cytotoxicité sont exprimées sous forme de ED₅₀ et de CD₅₀. La CD₅₀ représente la dose qui tue 50 % des cellules non infectées et la ED₅₀ représente la dose qui protège 50 % des cellules de l'infection virale.
(§3) La même expérience que celle décrite ci-avant (exemple 9.1)) a été réalisée, mais en présence de thymidine 250 µM et de 2′déoxycytidine 500 µM. En effet l'AZT entre en compétition avec la thymidine au niveau des enzymes de phosphorylation qui vont le transformer en AZT triphosphate (AZT TP) qui est la forme active du produit. Un excès de thymidine réduit donc très fortement l'activité de l'AZT, ce qui se traduit par une ED₅₀ plus élevée. Par conséquent, si le dérivé de l'AZT doit son activité à la libération d'AZT qui à son tour est phosphorylé en AZT TP, un excès de thymidine aura également pour effet d'élever la ED₅₀ du dérivé. La thymidine étant cytotoxique à la concentration utilisée, il est nécessaire de rajouter de la 2′déoxycytidine pour empêcher cette toxicité.
(§4) Les protocoles expérimentaux sont ceux décrits à l'exemple 9 3.1) et 9 3).

cellules MT4 = test: cytotoxicity on non-infected MT4 cells (MTT method); format: cell-based; details: for toxicité (compared with AZT, in words): comparison with AZT
Method: as §1, §2
as §3, with “En” for “La même expérience que celle décrite ci-avant (exemple 9.1)) a été réalisée, mais en présence de thymidine 250 µM et de 2′déoxycytidine 500 µM. En”
as §4

[2] = tested on: virus HIV-1 (souche HTLV-IIIB); test: viral antigen expression in HIV-infected HUT-78 cells (indirect immunofluorescence, laser cytofluorescence); format: cell-based
Text: Les produits (AZT et AZT-5′ hémisuccinyl) à différentes concentrations ont été mis en présence de cellules HUT-78 infectées par le virus HIV-1 (souche HTLV-IIIB) à une multiplicité d'infection de 0.4. Tous les quatre jours, 3/4 du milieu ont été remplacés par du milieu frais. Après douze jours, l'expression des antigènes viraux a été mesurée par immunofluorescence indirecte à l'aide d'un sérum anti-HIV-I positif, et par cytofluorescence laser, tel que décrit par Pauwels et al. J. Virol. Meth. 16, 171-185 (1987).
Des résultats sont exprimés dans le tableau 3 en ED₅₀ et en pourcentage d'effet protecteur selon la formule : [formula] TABLEAU 3

[3] = tested on: virus HIV-1 (souche HTLV-IIIB); test: viral antigen assay in HIV-infected human peripheral blood lymphocytes; format: cell-based; details: day 14 of culture
Text: Les lymphocytes ont été extraits d'un concentré plaquettaire par séparation sur gradient de Ficoll et élimination des adhérentes. Après 3 jours de stimulation par la phytohémaglutinine, ils ont été transférés dans un milieu additionné d'interleukine-2 (IL-2) est infectés par le virus HIV-1 (souche HTLV-IIIB). L'AZT et son dérivé 5′ hémisuccinate à différentes concentrations ont été rajoutés aux cellules au moment de l'infection.
Trois jours après l'infection, le milieu a été remplacé par du milieu frais additionné d'IL-2, contenant les produits aux concentrations désirées pour la moitié des cellules, et ne contenant plus de produit pour l'autre moitié. Ensuite, le milieu des cellules a été remplacé à moitié par du milieu frais additionné d'IL-2, contenant ou non les produits aux concentrations désirées, tous les 3 à 4 jours.
La multiplication du virus a été suivie par dosage des antigènes viraux dans les surnageants de culture (Innotest HIV-Organon Teknika).

[4] = tested on: virus MSV Moloney sarcoma virus; test: in vivo activity in MSV-infected NMRI mice (survival, tumour appearance); parameters: species or system souris NMRI
Method: L'AZT et ses dérivés selon l'invention ont été testés in vivo chez la souris NMRI (souriceaux de 2 jours) infectée par le virus MSV Moloney sarcoma virus). La drogue est adminitrée i.p. pendant 5 jours dans un volume de 25 µl/g de poids corporel. Le virus est inoculé dans la cuisse gauche de l'animal deux heures après la première administration de drogue. Les animaux sont contrôlés tous les jours selon trois critères : survie, apparition de la tumeur et poids (toxicité) pendant 50 jours. Les résultats sont repris au tableau 7 et dans les figures 8 à 11. [formula]
On entend par temps médian de survie le temps où la moitié des souris sont encore vivantes. [formula] Tableau 7

[5] = in vivo toxicity, intraperitoneal, 5-day-old NMRI mice; parameters: species or system souriceaux NMRI; details: AZT, i.p.
Method: L'AZT et son dérivé 5′hémisuccinyl ont été administrés par voie infra-péritonéale à de souriceaux NMRI âgés de 5 jours (100 µl/g de poids corporel). Les animaux ont été contrôlés tous les jours selon 2 critères : survie et poids pendant 25 jours.
Les résultats sont repris au tableau 9. Les souriceaux traités n'ont pas montre de différence significative dans la prise de poids par rapport aux contrôles. Tableau 9

HIV = details: patients at AIDS stage, estimate; cited from earlier work
[6] = tableau 6, MT-4, with thymidine(250 µM) + déoxy-cytidine (500 µM)
[7] = tableau 6, MT-4, without thymidine / déoxy-cytidine
[8] = listed as dérive 5′-valine de l'AZT
[9] = tableau 4, MT-4, without thymidine / 2′déoxycytidine
[10] = tableau 2, non-infected MT4 cells, 5 days at 37°C, dose that kills 50 % of cells

## Cc1cn([C@H]2C[C@H](N=[N+]=[N-])[C@@H](COC(=O)[C@@H](NC(=O)OC(C)(C)C)C(C)C)O2)c(=O)[nH]c1=O [AZT 5′tBoc valyl, 5′-O-(Boc-L-valyl)-3′-azido-3′-deoxythymidine]
[1]
  activité (compared with AZT, in words): activités comparables
[1]; [6]
  ED₅₀: 11.002 µM
  SI: 33
[1]; [7]
  ED₅₀: 0.0731 µM
  SI: 5740
Cellules MT4
  toxicité (compared with AZT, in words): moins toxiques que l'AZT
Cellules MT4; [6]
  CD₅₀: 358 µM
Cellules MT4; [7]
  CD₅₀: 420 µM

## Cc1cn([C@H]2C[C@H](N=[N+]=[N-])[C@@H](COC(=O)[C@@H](N)C(C)C)O2)c(=O)[nH]c1=O [AZT 5′valyl, 5′-O-(L-valyl)-3′-azido-3′-deoxythymidine]
[1]; listed as AZT-5′valine
  activité (compared with AZT, in words): deux foix plus élevée que celle de l'AZT
[1]; [8]
  activité (compared with AZT, in words): plus actif que l'AZT
[1]; [6]
  ED₅₀: 0.0987 µM
  SI: 386
[1]; [7]
  ED₅₀: 0.0007 µM
  SI: 5083
Cellules MT4; listed as AZT-5′valine
  toxicité (compared with AZT, in words): comparable à celle de ce dernier
Cellules MT4; [8]
  toxicité (compared with AZT, in words): comparable à celle de l'AZT
Cellules MT4; [6]
  CD₅₀: 38.16 µM
Cellules MT4; [7]
  CD₅₀: 3.65 µM

## Cc1cn([C@H]2C[C@H](N=[N+]=[N-])[C@@H](CO)O2)c(=O)[nH]c1=O [AZT, 3′azido-3′déoxythymidine, reference compound]
[1]; de l'ordre de
  indice de sélectivité: ~6000
[1]; [9]
  ED₅₀: 0,0018 µM
  SI: 2780
[1]; [7]
  ED₅₀: 0.0018 µM
  SI: 2780
Cellules MT4; [10]
  CD₅₀: 15.8 µM and 14.2 µM
Cellules MT4; [9]
  CD₅₀: 5.06 µM
Cellules MT4; [7]
  CD₅₀: 5,06 µM
[2]; HUT-78, day 12, concentration 0.2 µM
  Pourcentage d'effet protecteur: 36%
[2]; HUT-78, day 12, concentration 1 µM
  Pourcentage d'effet protecteur: 45%
[2]; HUT-78, day 12, concentration 5 µM
  Pourcentage d'effet protecteur: 65%
[2]; HUT-78 cells, multiplicity of infection 0.4, day 12
  ED₅₀: ED₅₀ AZT = 2 µM
[3]; durée d'administration 3 jours
  ED₅₀: 0.03 µM
[3]; durée d'administration 14 jours
  ED₅₀: 0.023 µM
[4]; AZT 5 mg/kg/jour i.p. 5 days
  % ILS: 26.8%
  % ITL: 62.8%
  Temps moyen d'apparition de la tumeur: 6.5 jours
  Temps moyen de survie: 11.3 jours
  Temps médian d'apparition de la tumeur: 7.3 jours
  Temps médian de survie: 11.6 jours
[4]; AZT 25 mg/kg/jour i.p. 5 days
  % ILS: 74.8%
  % ITL: 190%
  Temps moyen de survie: >19.8 jours
  Temps médian d'apparition de la tumeur: 13 jours
  Temps médian de survie: 16 jours
[4]; AZT 125 mg/kg/jour i.p. 5 days
  % ILS: 74.8%
  % ITL: 137%
  Temps moyen d'apparition de la tumeur: 10.2 jours
  Temps moyen de survie: >23.3 jours
  Temps médian d'apparition de la tumeur: 10.6 jours
  Temps médian de survie: 16 jours
[5]; dose 1 g/kg poids corporel (équivalent AZT 1)
  Survivants au jour 25: 0%
[5]; dose 2 g/kg poids corporel (équivalent AZT 2)
  Survivants au jour 25: 0%
HIV
  augmentation du temps de survie des patients traités: ~18 mois

## CC(=O)N[C@@H](CC(=O)OC[C@H]1O[C@@H](n2cc(C)c(=O)[nH]c2=O)C[C@@H]1N=[N+]=[N-])C(=O)O [AZT-5′hémiaspartyl (isomère majeur), 5′-O-(N-acétyl-L-hemiaspartyl)-3′-azido-3′ déoxythymidine]
[1]
  activité (compared with AZT, in words): activités comparables
[1]; comparison with the hémisuccinyl derivative
  indice de sélectivité (in words): comparable à celui du dérivé hémisuccinyl
[1]; [6]
  ED₅₀: 4.000 µM
  SI: 19
[1]; [7]
  ED₅₀: 0.0161 µM
  SI: 4046
Cellules MT4
  toxicité (compared with AZT, in words): moins toxiques que l'AZT
Cellules MT4; [6]
  CD₅₀: 74.83 µM
Cellules MT4; [7]
  CD₅₀: 65.06 µM

## Cc1cn([C@H]2C[C@H](N=[N+]=[N-])[C@@H](COC(=O)[C@@H](N)CC(C)C)O2)c(=O)[nH]c1=O [AZT-5′leucyl, 5′O-(L-leucyl)-3′-azido-3′déoxythymidine]
[1]; tableau 2, MT4 cells infected with 100 CCID₅₀ HIV-1, 5 days at 37°C, dose that protects 50 % of cells
  ED₅₀: .005 µM
[1]; tableau 2, indice de sélectivité = CD₅₀ sur ED₅₀, MT4 cells
  SI: 5080
[1]; tableau 2, ratio within the same experiment, MT4 cells
  SI dérivé/SI AZT: 2.1
Cellules MT4; [10]
  CD₅₀: 25.4 µM
